Measured values published in the NIST ThermoML archive (doi:10.1021/je100507n).

Experiments:
[1] = for mass density: 101.33 kPa, Buoyancy - hydrostatic balance with magnetic suspension - one sinker; for mass density / surface tension liquid-gas: Liquid; for surface tension liquid-gas: Ring tensiometer
[2] = Molar enthalpy of transition or fusion

CCCC[n+]1ccccc1.O=S(=O)([N-]S(=O)(=O)C(F)(F)F)C(F)(F)F [1-butylpyridinium bis[(trifluoromethyl)sulfonyl]imide]
Conditions | Molar enthalpy of transition or fusion, [2] [kcal/mol] | mass density, [1] [kg/m3] | surface tension liquid-gas, [1] [mN/m]
298.15 K | – | 1454.7 | 33.4
303.15 K | – | 1450.6 | 33.2
308.15 K | – | 1446.2 | 32.9
313.15 K | – | 1441.7 | 32.8
318.15 K | – | 1437.2 | 32.4
323.15 K | – | 1433.2 | 32.1
328.15 K | – | 1429.1 | 32
333.15 K | – | 1424.5 | 31.8
338.15 K | – | 1420.5 | –
Crystal | 6.67 | – | –

Conditions | Normal melting temperature [°C]
[1], Crystal, DTA | 25.90

CC[n+]1ccccc1.O=S(=O)([N-]S(=O)(=O)C(F)(F)F)C(F)(F)F [1-ethylpyridinium bis[(trifluoromethyl)sulfonyl]imide]
Conditions | Glass transition temperature [°C] | Molar enthalpy of transition or fusion [kcal/mol] | Normal melting temperature [°C] | Triple point temperature [K] | mass density [kg/m3] | surface tension liquid-gas [mN/m]
[1], 288.15 K | – | – | – | – | 1545.7 | 37.7
[1], 293.15 K | – | – | – | – | 1541.4 | 37.6
[1], 298.15 K | – | – | – | – | 1537.5 | 37.4
[1], 303.15 K | – | – | – | – | 1533.2 | 37.1
[1], 308.15 K | – | – | – | – | 1529.1 | 36.9
[1], 313.15 K | – | – | – | – | 1524.9 | 36.7
[1], 318.15 K | – | – | – | – | 1520.5 | 36.6
[1], 323.15 K | – | – | – | – | 1516.4 | 36.4
[1], 328.15 K | – | – | – | – | 1512.2 | 36.1
[1], 333.15 K | – | – | – | – | 1507.8 | 35.9
[1], 338.15 K | – | – | – | – | 1503.7 | 35.6
[1], Crystal 1, DTA | – | – | 30.50 | – | – | –
[1], Crystal 2, DTA | – | – | – | 292.8 | – | –
[1], DTA | -37.91 | – | – | – | – | –
[2], Crystal 1 | – | 4.52 | – | – | – | –

CCCCC[n+]1ccccc1.O=S(=O)([N-]S(=O)(=O)C(F)(F)F)C(F)(F)F [1-pentylpyridinium bis(trifluoromethylsulfonyl)amide]
Conditions | Glass transition temperature [°C] | Molar enthalpy of transition or fusion [kcal/mol] | mass density [kg/m3] | surface tension liquid-gas [mN/m]
[1], 283.15 K | – | – | 1433.1 | 33.1
[1], 288.15 K | – | – | 1429.6 | 32.8
[1], 293.15 K | – | – | 1425.9 | 32.7
[1], 298.15 K | – | – | 1421.4 | 32.5
[1], 303.15 K | – | – | 1416.9 | 32.2
[1], 308.15 K | – | – | 1412.8 | 32
[1], 313.15 K | – | – | 1408.3 | 31.8
[1], 318.15 K | – | – | 1403.8 | 31.5
[1], 323.15 K | – | – | 1398.9 | 31.3
[1], 328.15 K | – | – | 1394.2 | 31.1
[1], 333.15 K | – | – | 1389.3 | 30.8
[1], 338.15 K | – | – | 1385.1 | 30.5
[1], DTA | -76.93 | – | – | –
[2], Crystal | – | 5.45 | – | –

Conditions | Normal melting temperature [°C]
[1], Crystal, DTA | -0.31
